Each structure is given as a SMILES string.

What is called melting point is the temperature, or range, at which the solid turns liquid.

Consider `Cc1nn(C)c(C)c1C(CC(=O)O)C(F)(F)F` (configuration not stated), for which the melting point is 130 to 132 °C.
For `COC(=O)c1c(C(=O)CCl)c(C)n(C2CC2)c1C` the value was 74 to 78 °C; for `O=C(CCl)NCc1ccc(COc2ccccc2)cc1`, 123 to 125 °C.
Regarding `CC1C=CC(C(=O)O)C2C(=O)N(c3ccccc3)C(=O)C12` (configuration not stated), the melting point was 219 to 221 °C.
Compound `O=C(O)CC(O)(c1ncc[nH]1)C(F)(F)F` (configuration not stated) gave a melting point of 208 to 210 °C.
On to `N#Cc1ccccc1Oc1cnccn1`, for which the melting point fell in the range of 73 to 75 °C.
On to `COC(=O)c1cc(Cl)cc(S(=O)(=O)Cl)c1`, for which the melting point is 50 to 52 °C.
As for `CCOc1ccc(C2(C)NC(=O)NC2=O)cc1` (configuration not stated), the melting point was in the range of 190 to 192 °C.
For `CC(C)CNC(=O)C(C)Cl` (configuration not stated) the value was 37 to 39 °C.
Regarding `NNC(=O)Nc1c(Cl)cc(Cl)cc1Cl`, the melting point is 229 to 231 °C.
In the case of `O=C(O)c1c(O)cnc2ccccc12` it was 199 to 201 °C; in that of `CC(=O)c1c(C)[nH]c(C(=O)C(C)Cl)c1C` (configuration not stated), 152 to 154 °C.
For `Cc1cc(C(=O)O)c2c(Br)cccc2n1` the value was 232 to 234 °C; for `FC(F)(F)Cn1c(-c2ccccc2)cnc1S`, 179 to 181 °C.
For `CC(CC(=O)O)C(=O)c1ccc(Cl)cc1` (configuration not stated) the value was 73 to 75 °C.
On to `COc1ccc(N)cc1OCCN(C)C`, for which the melting point was in the range of 70 to 72 °C.
In the case of `CNS(=O)(=O)c1ccc(C(C)=O)cc1` it was 109 to 111 °C; in that of `NS(=O)(=O)NCc1cccnc1`, 129 to 131 °C; in that of `O=C(O)c1ccc(-c2cc(Cl)cc(Cl)c2)s1`, 190 to 195 °C.
In the case of `O=C(O)c1cn(Cc2cccc(F)c2)nn1` it was 189 to 191 °C; in that of `Cc1cccc(C2CC2C(=O)O)c1` (configuration not stated), 88 to 90 °C.
In the case of `O=C(O)C(c1ccccc1)n1cccn1` (configuration not stated) it was 141 to 143 °C; in that of `O=C(O)C1C2CC3CC(C2)CC1C3` (configuration not stated), 121 to 123 °C; in that of `CC1CC(N)=NO1` (configuration not stated), 95 to 97 °C.
`Cc1nc(COc2ccccc2C(=O)O)no1`: the melting point lay in the range of 89 to 91 °C.
In the case of `Cc1cc(OCC(=O)O)no1` it was 123 to 125 °C; in that of `Cc1c(N)cccc1S(=O)(=O)NC1CC1`, 111 to 113 °C; in that of `C=CC(=O)Nc1cc(N)ccc1F`, 135 to 137 °C.
For `CC(C)C(=O)Nc1ccc(CNC(=O)n2ccnc2)cc1` the value was 203 to 205 °C.
For `Fc1cc(CCl)c2c(c1)COC(c1ccsc1)O2` (configuration not stated) the value was 77 to 79 °C; for `Nc1cccc(CS(=O)C2CCCCC2)c1` (configuration not stated), 88 to 90 °C.
In the case of `CCCn1c(N)c(NCCOC)c(=O)[nH]c1=O`, the melting point lay within 193 to 195 °C.
For `NNC(=O)C1CCCC1` the value was 112 to 114 °C; for `Cc1[nH]nc2ncc(C(=O)O)cc12`, 337 to 339 °C; for `CC(=O)c1ccc(NC(=O)CI)cc1`, 139 to 141 °C.
In the case of `CC(=O)Nc1ccc(NS(C)(=O)=O)c(C(=O)O)c1` it was 265 to 267 °C.
In the case of `CCC(=O)c1ccc(Cl)c(Cl)c1O` it was 98 to 100 °C; in that of `O=C(O)c1ccccc1-n1cnnn1`, 190 to 194 °C; in that of `NC(=O)c1nn(CC(=O)O)c(=O)c2ccccc12`, 220 to 222 °C.
`O=C1CN(/C=C/c2ccccc2)C(=O)N1` returned a melting point of 224 to 226 °C.
For `Cc1ccc(F)c(N)c1C(=O)O` the value was 114 to 116 °C; for `Fc1ccc(Oc2ccncc2)c(Br)c1`, 74 to 76 °C; for `Cc1cc(N)ccc1NC(=O)c1cccc(S(C)(=O)=O)c1`, 149 to 151 °C.
In the case of `Cc1ccc(OCc2ccc(C(=O)O)o2)cc1` it was 204 to 206 °C; in that of `O=C(Nc1cccnc1)c1ccc(O)cc1`, 273 to 275 °C; in that of `Cn1ccnc1C(O)C1CCNCC1` (configuration not stated), 207 to 209 °C.
In the case of `CN1CCN(c2ccc(C(=O)O)cc2[N+](=O)[O-])CC1` it was 160 to 162 °C.

Source of the values: a melting point compilation (Tetko et al.).
